The subject of the series is Human Heme Oxygenase-1 (HMOX-1). In words: ELISA assay to measure human heme oxygenase-1 (HMOX-1) in HepG2 lysate. Format: cell-based. The conditions noted are these: fold change of human HMOX1 protein levels relative to DMSO control, HepG2. On the procedure:
Example 143. ELISA Assay to Measure Human Heme Oxygenase-1 (HMOX-1) in HepG2 lysate
Reagents and Technical Notes:
ELISA capture antibody, standard HO-1, detection antibody and streptavidin HRP were supplied in the DuoSet IC Human total HO-1 ELISA from R&D systems (DYC3776-2). The substrate cocktail was KPL LumiGLO reserve Chemiluminescent Substrate (54-71-00). PBS was Corning Cellgro Cell Culture (21-040-CV). 10×PBS+0.05% tween20 (PBST) was from KPL.
All incubations of the plate were at room temperature (20° C.) in a closed drawer.
The ELISA plate was processed manually. All loadings were with a multichannel pipet. Plates were emptied by shaking into the sink and tapping onto paper towels to remove any remaining reagent. Plate washing was accomplished by loading all wells with PBS+0.05% tween20 (PBST) using a squirt bottle, shaking the PBST out and tapping the plate onto paper towels.
Preparation of the ELISA Plate: • 1. anti-HO-1 capture antibody was 1440 μg/ml after reconstitution in PBS. This antibody was diluted to 8 μg/ml in PBS and 50 μl per well was added to a 384 well greiner “lumitrac 200” plate. Incubated overnight. • 2. The plate was emptied and 100 μl PBS+1% BSA added to all wells. Incubated 90 minutes at room temperature.
Preparation of HepG2 Lysate: • 1. Cells were cultured in a 96-well tissue culture plate washed with PBS and then the plate frozen at −70° C. overnight. Plates were allowed to warm to ice temperature in an ice bucket. 20 μl of PBS, 0.5% Triton X100, 1 mM EDTA with 1×HALT™ protease inhibitors was added to each well and the plates incubated on ice for 1 hour. • 2. The lysates were frozen at −20° C. overnight.
Measurement of HMOX1 (“HO-1”) • 1. In a polypropylene 384 well plate, human HO-1(after reconstitution in PBS+0.5% Triton+1 mM EDTA) was serially diluted from 20 ng/ml 2-fold in PBS+0.5% triton-X100, 1 mM EDTA to make a 12-point standard curve including a zero point. • 2. In a polypropylene 96 well plate, HepG2 lysate was diluted 1 to 20 in Diluent #4 from DUOSET kit in which the assay standard is also diluted. • 3. The PBS+1% BSA was emptied from the ELISA plate and 30 μl of all samples and standards were added (duplicates recommended). The plate was incubated 90 minutes. • 4. Emptied plate and washed 4 times with PBST. • 5. Diluted HO-1 detection antibody to 200 ng/ml in PBS+1% BSA and added 30 μl to all wells. Incubated 90 minutes. • 6. Emptied plate and washed 4 times with PBST. • 7. Added 30 μl streptavidin HRP at 1/200 in PBS+1% BSA (stock streptavidin concentration not specified) to all wells. Incubated 30 minutes. • 8. Emptied plate and washed 4 times with PBST. • 9. Diluted Lumiglo reserve reagent two parts buffer to one part lumiglo substrate. Added 30 μl to all wells. Incubated 5 minutes. • 10. Measured chemiluminescence on spectramax M5 using 150 ms integration.
Table 1 below lists EC50 and fold changes of human HMOX1 protein levels relative to DMSO control upon treatment with representative compounds.
For `Cn1c(Nc2nc3ccccc3o2)nc2cc(C(=O)NCCOCC(=O)O)ccc21` [Example 29, 2-(2-(2-(benzo[d]oxazol-2-ylamino)-1-methyl-1H-benzo[d]imidazole-5-carboxamido)ethoxy)acetic acid], the “Maximum Fold induction” value came out at 12.

In the case of `Cn1c(Nc2nc3ccc(C(F)(F)F)cc3o2)nc2cc(C(=O)O)ccc21` [Example 31, 1-methyl-2-((6-(trifluoromethyl)benzo[d]oxazol-2-yl)amino)-1H-benzo[d]imidazole-5-carboxylic acid], the “Maximum Fold induction” value is 25-29. To `COCCNC(=O)c1ccc2c(c1)nc(Nc1nc3ccc(C(F)(F)F)cc3o1)n2C` [Example 32, N-(2-methoxyethyl)-1-methyl-2-((6-(trifluoromethyl)benzo[d]oxazol-2-yl)amino)-1H-benzo[d]imidazole-5-carboxamide] belongs 14-50; to `Cn1c(Nc2nc3ccc(C(F)(F)F)cc3o2)nc2cc(C(=O)NCCO)ccc21` [Example 33, N-(2-hydroxyethyl)-1-methyl-2-((6-(trifluoromethyl)benzo[d]oxazol-2-yl)amino)-1H-benzo[d]imidazole-5-carboxamide], 32-45; to `Cn1c(Nc2nc3ccc(C(F)(F)F)cc3o2)nc2cc(C(=O)NCCOCCO)ccc21` [Example 34, N-(2-(2-hydroxyethoxy)ethyl)-1-methyl-2-((6-(trifluoromethyl)benzo[d]oxazol-2-yl)amino)-1H-benzo[d]imidazole-5-carboxamide], 31-36.

As for `CC(O)CNC(=O)c1ccc2c(c1)nc(Nc1nc3ccc(C(F)(F)F)cc3o1)n2C` (stereo not drawn) [Example 35, N-(2-hydroxypropyl)-1-methyl-2-((6-(trifluoromethyl)benzo[d]oxazol-2-yl)amino)-1H-benzo[d]imidazole-5-carboxamide], the “Maximum Fold induction” value is reported as 37.

In the case of `Cn1c(Nc2nc3ccc(C(F)(F)F)cc3o2)nc2cc(C(=O)NCCN3CCCC3)ccc21` [Example 36, 1-methyl-N-(2-(pyrrolidin-1-yl)ethyl)-2-((6-(trifluoromethyl)benzo[d]oxazol-2-yl)amino)-1H-benzo[d]imidazole-5-carboxamide], the “Maximum Fold induction” value came out at 42. The result for `Cn1c(Nc2nc3ccc(C(F)(F)F)cc3o2)nc2cc(C(=O)NCCN3CCCCC3)ccc21` [Example 37, 1-methyl-N-(2-(piperidin-1-yl)ethyl)-2-((6-(trifluoromethyl)benzo[d]oxazol-2-yl)amino)-1H-benzo[d]imidazole-5-carboxamide] reads 28; that for `CC(O)COCCNC(=O)c1ccc2c(c1)nc(Nc1nc3ccc(C(F)(F)F)cc3o1)n2C` (stereo not drawn) [Example 38, N-(2-(2-hydroxypropoxy)ethyl)-1-methyl-2-((6-(trifluoromethyl)benzo[d]oxazol-2-yl)amino)-1H-benzo[d]imidazole-5-carboxamide], 30. As to `Cn1c(Nc2nc3ccc(C(F)(F)F)cc3o2)nc2cc(C(=O)NCC(O)CO)ccc21` (stereo not drawn) [Example 39, N-(2,3-dihydroxypropyl)-1-methyl-2-((6-(trifluoromethyl)benzo[d]oxazol-2-yl)amino)-1H-benzo[d]imidazole-5-carboxamide], the “Maximum Fold induction” value is 56-82. The result for `CN(C)CC(=O)NCCNC(=O)c1ccc2c(c1)nc(Nc1nc3ccc(C(F)(F)F)cc3o1)n2C` [Example 40, N-(2-(2-(dimethylamino)acetamido)ethyl)-1-methyl-2-((6-(trifluoromethyl)benzo[d]oxazol-2-yl)amino)-1H-benzo[d]imidazole-5-carboxamide] reads 56-93. For the compound `Cn1c(Nc2nc3ccc(C(F)(F)F)cc3o2)nc2cc(C(=O)NCCOCC(=O)O)ccc21` [Example 41, 2-(2-(1-methyl-2-((6-(trifluoromethyl)benzo[d]oxazol-2-yl)amino)-1H-benzo[d]imidazole-5-carboxamido)ethoxy)acetic acid], the “Maximum Fold induction” value was 35-39. The result for `Cn1c(Nc2nc3ccc(C(F)(F)F)cc3o2)nc2cc(C(=O)NCCOCC(C)(C)O)ccc21` [Example 42, N-(2-(2-hydroxy-2-methylpropoxy)ethyl)-1-methyl-2-((6-(trifluoromethyl)benzo[d]oxazol-2-yl)amino)-1H-benzo[d]imidazole-5-carboxamide] reads 39; that for `Cn1c(Nc2nc3cc(C(F)(F)F)ccc3o2)nc2cc(C(=O)NCCOCCO)ccc21` [Example 43, N-(2-(2-hydroxyethoxy)ethyl)-1-methyl-2-((5-(trifluoromethyl)benzo[d]oxazol-2-yl)amino)-1H-benzo[d]imidazole-5-carboxamide], 56; that for `COCCNC(=O)c1ccc2c(c1)nc(Nc1nc3ccc(OC(F)(F)F)cc3o1)n2C` [Example 45, N-(2-methoxyethyl)-1-methyl-2-((6-(trifluoromethoxy)benzo[d]oxazol-2-yl)amino)-1H-benzo[d]imidazole-5-carboxamide], 10-28. For `Cn1c(Nc2nc3ccc(OC(F)(F)F)cc3o2)nc2cc(C(=O)Nc3cn[nH]c3)ccc21` [Example 46, 1-methyl-N-(1H-pyrazol-4-yl)-2-((6-(trifluoromethoxy)benzo[d]oxazol-2-yl)amino)-1H-benzo[d]imidazole-5-carboxamide], the “Maximum Fold induction” value is 14-20.

Take `Cn1c(Nc2nc3ccc(OC(F)(F)F)cc3o2)nc2cc(C(=O)NC(CO)(CO)CO)ccc21` [Example 47, N-(1,3-dihydroxy-2-(hydroxymethyl)propan-2-yl)-1-methyl-2-((6-(trifluoromethoxy)benzo[d]oxazol-2-yl)amino)-1H-benzo[d]imidazole-5-carboxamide]: the “Maximum Fold induction” value is recorded as 13-16. To `Cn1c(Nc2nc3ccc(OC(F)(F)F)cc3o2)nc2cc(C(=O)NC(CO)CO)ccc21` [Example 48, N-(1,3-dihydroxypropan-2-yl)-1-methyl-2-((6-(trifluoromethoxy)benzo[d]oxazol-2-yl)amino)-1H-benzo[d]imidazole-5-carboxamide] belongs 13-20. The result for `CN(C)CC(=O)NCCNC(=O)c1ccc2c(c1)nc(Nc1nc3ccc(OC(F)(F)F)cc3o1)n2C` [Example 49, N-(2-(2-(dimethylamino)acetamido)ethyl)-1-methyl-2-((6-(trifluoromethoxy)benzo[d]oxazol-2-yl)amino)-1H-benzo[d]imidazole-5-carboxamide] reads 14-23; that for `Cn1cc(NC(=O)c2ccc3c(c2)nc(Nc2nc4ccc(OC(F)(F)F)cc4o2)n3C)cn1` [Example 50, 1-methyl-N-(1-methyl-1H-pyrazol-4-yl)-2-((6-(trifluoromethoxy)benzo[d]oxazol-2-yl)amino)-1H-benzo[d]imidazole-5-carboxamide], 12-18; that for `Cn1c(Nc2nc3ccc(OC(F)(F)F)cc3o2)nc2cc(C(=O)NC3COC3)ccc21` [Example 51, 1-methyl-N-(oxetan-3-yl)-2-((6-(trifluoromethoxy)benzo[d]oxazol-2-yl)amino)-1H-benzo[d]imidazole-5-carboxamide], 30-57.

Regarding `Cn1c(Nc2nc3ccc(OC(F)(F)F)cc3o2)nc2cc(C(=O)NCC3(O)COC3)ccc21` [Example 52, N-((3-hydroxyoxetan-3-yl)methyl)-1-methyl-2-((6-(trifluoromethoxy)benzo[d]oxazol-2-yl)amino)-1H-benzo[d]imidazole-5-carboxamide], the “Maximum Fold induction” value was found to be 27. `Cn1c(Nc2nc3ccc(OC(F)(F)F)cc3o2)nc2cc(C(=O)NCCO)ccc21` [Example 53, N-(2-hydroxyethyl)-1-methyl-2-((6-(trifluoromethoxy)benzo[d]oxazol-2-yl)amino)-1H-benzo[d]imidazole-5-carboxamide]: the “Maximum Fold induction” value is listed as 29-38.

As for `Cn1c(Nc2nc3ccc(OC(F)(F)F)cc3o2)nc2cc(C(=O)NCCS(C)(=O)=O)ccc21` [Example 54, 1-methyl-N-(2-(methylsulfonyl)ethyl)-2-((6-(trifluoromethoxy)benzo[d]oxazol-2-yl)amino)-1H-benzo[d]imidazole-5-carboxamide], the “Maximum Fold induction” value was 31-37.

These data come from US20240051952A1, “HMOX1 INDUCERS” (Mitobridge Inc., priority 2019, published 2024).
